In one experiment the target is T1, ADAMTS4 (Homo sapiens, UniProt O75173).
T1 construct: purchased R&D 4307-AD
T1 sequence (O75173 213-685 limits assumed): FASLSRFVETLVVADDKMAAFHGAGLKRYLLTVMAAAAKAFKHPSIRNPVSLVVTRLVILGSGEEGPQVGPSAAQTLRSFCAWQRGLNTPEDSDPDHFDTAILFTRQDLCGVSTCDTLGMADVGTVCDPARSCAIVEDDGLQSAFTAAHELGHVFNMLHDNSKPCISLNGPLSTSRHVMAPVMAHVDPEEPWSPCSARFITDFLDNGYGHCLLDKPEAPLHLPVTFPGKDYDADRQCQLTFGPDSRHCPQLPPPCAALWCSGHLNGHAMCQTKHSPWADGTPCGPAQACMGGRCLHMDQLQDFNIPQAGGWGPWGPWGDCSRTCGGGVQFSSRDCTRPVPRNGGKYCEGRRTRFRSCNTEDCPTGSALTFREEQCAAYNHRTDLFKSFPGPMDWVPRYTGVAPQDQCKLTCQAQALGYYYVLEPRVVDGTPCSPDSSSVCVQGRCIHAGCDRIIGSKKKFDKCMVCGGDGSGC
Description: Selectivity assay for ADAMTS-7 modulators (FRET), ADAMTS4. It is filed as biochemical. The following applies: 50 nM enzyme (R&D 4307-AD), 1 μM Dabcyl/Edans FRET substrate, 120 min at 32° C. As to the method: The respective enzyme (see table 2 below) was diluted in reaction buffer (50 mM Tris, 2.5 μM ZnCl2, 0.05% BSA, 0.001% Brij, pH 7.5 for ADAM17; 50 mM Tris 7.5, 150 mM NaCl, 10 mM CaCl2, 0.05% Brij for all other enzymes) to the respective concentration and 25 μl were transferred into each well of a 384-well white microtiter plate (Greiner Bio One 781075). 1 μl test compound solution (dissolved in DMSO, at the corresponding concentration) or pure DMSO as a control was added per well. The enzymatic reaction was initiated by addition of 25 μl of the respective concentration of the respective FRET substrate (see table 2 below) in reaction buffer. The microtiter plate was incubated for 120 min at the temperature of 32° C. The increase of fluorescence intensity was measured in appropriate fluorescence plate reader (e.g. TECAN Ultra) using the respective wavelengths for excitation and emission. IC50 values were calculated from percentage of inhibition of enzyme activity as a function of test compound concentration.

Experiment [1] addresses T2, Purified recombinant ADAMTS-7 (rat prodomain/human catalytic domain, SEQ ID No. 01 or 02) (Homo sapiens, UniProt Q9UKP4).
T2 construct: rat ADAMTS-7 signal peptide + prodomain (rat 1-217, Q1EHB3) (N); 2xStrep tag (C); 6xHis tag (C); made in house; host or cells: Expi293 cells
T2 sequence (Q9UKP4 237-537): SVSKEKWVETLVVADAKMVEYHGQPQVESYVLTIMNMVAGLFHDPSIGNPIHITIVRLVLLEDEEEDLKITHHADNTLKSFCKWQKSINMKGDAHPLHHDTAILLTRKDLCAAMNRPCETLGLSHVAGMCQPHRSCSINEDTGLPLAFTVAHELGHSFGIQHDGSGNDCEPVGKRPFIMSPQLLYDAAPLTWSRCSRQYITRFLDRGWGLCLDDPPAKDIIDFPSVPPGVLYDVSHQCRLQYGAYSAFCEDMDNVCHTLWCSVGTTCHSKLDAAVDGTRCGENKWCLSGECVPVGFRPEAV
Description: Assay for ADAMTS-7 enzymatic activity (FRET substrate cleavage). It counts as biochemical. Particulars: FRET substrate SEQ ID No. 11, 120 min at 32° C.; read-out: ADAMTS7-IC50. Here is the method:
Purified recombinant ADAMTS-7 (as of SEQ ID No. 01 or SEQ ID No. 02) was diluted in reaction buffer (20 mM HEPES pH 8.0, 150 mM NaCl, 5 mM CaCl2, 0.004% Brij, 10 μM ZnCl2) fora concentration of approximately 20 nM. 25 μl of the solution were transferred into each well of a 384-well white microtiter plate (Greiner Bio-One 781075) and 1 μl test compound solution (modulator/inhibitor dissolved in DMSO, at the corresponding concentration) or pure DMSO as a control were added per well. […] Amino acids […] are derived from Thrombospondin-1 sequence (275-289). An additional carboxyl glutamic acid was added after the QXL520 quencher to increase substrate solubility. The microtiter plate was incubated for 120 min at the temperature of 32° C. The increase of fluorescence intensity was measured in appropriate fluorescence plate reader (e.g. TECAN Ultra) using excitation wavelength of 485 nm and emission wavelength of 520 nm. IC50 values were calculated from percentage of inhibition of ADAMTS-7 activity as a function of test compound concentration.

One may read the IC50 as the concentration that inhibits the measured activity by half.

`CCCCC1(CNC(=O)c2cnn(-c3ccccc3)n2)NC(=O)NC1=O` (racemic) [Example 51, rac-N-[(4-butyl-2,5-dioxoimidazolidin-4-yl)methyl]-2-phenyl-2H-1,2,3-triazole-4-carboxamide]: the results for the IC50 (on ADAMTS4; in experiment [1]) were 15000 nM and 89 nM, respectively.
In the same order, the values of `CCCC1(CNC(=O)c2cnn(-c3ccc(F)cc3)n2)NC(=O)NC1=O` (racemic) [Example 65, rac-N-[(2,5-dioxo-4-propylimidazolidin-4-yl)methyl]-2-(4-fluorophenyl)-2H-1,2,3-triazole-4-carboxamide] are 19000 nM and 170 nM.
Regarding `O=C1NC(=O)C(CNC(=O)c2cnn(-c3ccc(F)cc3)n2)(c2ncsc2C(F)(F)F)N1` (stereo not drawn) [Example 136, ent-N-({2,5-dioxo-4-[5-(trifluoromethyl)-1,3-thiazol-4-yl]imidazolidin-4-yl}methyl)-2-(4-fluorophenyl)-2H-1,2,3-triazole-4-carboxamide], the IC50 against ADAMTS4 stood at 3500 nM; in experiment [1], 27 nM.
As to `O=C1NC(=O)[C@](CNC(=O)c2cnn(-c3cc(F)ccc3F)n2)(C2CC2)N1` [Example 36, N-{[(4R)-4-cyclopropyl-2,5-dioxoimidazolidin-4-yl]methyl}-2-(2,5-difluorophenyl)-2H-1,2,3-triazole-4-carboxamide], the results for the half-maximal inhibitory concentration (IC50) (at ADAMTS4; in experiment [1]) were 5500 nM and 110 nM, respectively.
In the same order, the values of `O=C1NC(=O)C(CNC(=O)c2cnn(-c3ccc(F)c(F)c3)n2)(C2CCC2)N1` (stereo not drawn) [Example 94, ent-N-[(4-cyclobutyl-2,5-dioxoimidazolidin-4-yl)methyl]-2-(3,4-difluorophenyl)-2H-1,2,3-triazole-4-carboxamide] are 890 nM and 6 nM.
On to `O=C1NC(=O)[C@](CNC(=O)c2cnn(-c3ccc(Cl)cc3Cl)n2)(C2CC2)N1` [Example 161, N-{[(4R)-4-cyclopropyl-2,5-dioxoimidazolidin-4-yl]methyl}-2-(2,4-dichlorophenyl)-2H-1,2,3-triazole-4-carboxamide], for which the IC50 came out at 7100 nM on ADAMTS4 and 130 nM in experiment [1].
Take `O=C1NC(=O)[C@](CNC(=O)c2cnn(-c3ccccn3)n2)(C2CC2)N1` [Example 60, N-{[(4R)-4-cyclopropyl-2,5-dioxoimidazolidin-4-yl]methyl}-2-(pyridin-2-yl)-2H-1,2,3-triazole-4-carboxamide]: the IC50 against ADAMTS4 was 8400 nM; in experiment [1] it was 259 nM.
With `O=C1NC(=O)C(CNC(=O)c2cnn(-c3ccc(F)cc3)n2)(CC2CC2)N1` (stereo not drawn) [Example 72, ent-N-[(4-(cyclopropylmethyl)-2,5-dioxoimidazolidin-4-yl]methyl]-2-(4-fluorophenyl)-2H-1,2,3-triazole-4-carboxamide], the values for the IC50 (at ADAMTS4; in experiment [1]) were 6200 nM and 130 nM, respectively.
As for `O=C1NC(=O)C(CNC(=O)c2cnn(-c3ccccc3)n2)(C2CCOC2)N1` (racemic) [Example 19, rac-N-{[2,5-dioxo-4-(tetrahydrofuran-3-yl)imidazolidin-4-yl]methyl}-2-phenyl-2H-1,2,3-triazole-4-carboxamide], the figures for the IC50 (at ADAMTS4; in experiment [1]) were 22000 nM and 170 nM, respectively.
In the case of `O=C1NC(=O)C(CNC(=O)c2cnn(-c3ccccc3)n2)(C2CCCOC2)N1` (single isomer, unassigned; dia1) [Example 84, dia1-N-{[4-(-oxan-3-yl)-2,5-dioxoimidazolidin-4-yl]methyl}-2-phenyl-2H-1,2,3-triazole-4-carboxamide], the IC50 came out at 4000 nM against ADAMTS4 and 150 nM in experiment [1].
On to `O=C1NC(=O)C(CNC(=O)c2cnn(-c3ccccc3)n2)(C2CCC2)N1` (racemic) [Example 52, rac-N-[4-cyclobutyl-2,5-dioxoimidazolidin-4-yl)methyl]-2-phenyl-2H-1,2,3-triazole-4-carboxamide], for which the IC50 amounted to 14000 nM on ADAMTS4 and 55 nM in experiment [1].
Consider `CC(C)C1(CNC(=O)c2cnn(-c3cc(F)c(F)c(F)c3)n2)NC(=O)NC1=O` (racemic) [Example 99, rac-N-[(4-isopropyl-2,5-dioxoimidazolidin-4-yl)methyl]-2-(3,4,5-trifluorophenyl)-2H-1,2,3-triazole-4-carboxamide], for which the IC50 at ADAMTS4 stood at 6000 nM; in experiment [1], 52 nM.
Take `CC(C)C1(CNC(=O)c2cnn(-c3cc(F)c(F)c(F)c3)n2)NC(=O)NC1=O` (stereo not drawn) [Example 117, ent-N-[(4-isopropyl-2,5-dioxoimidazolidin-4-yl)methyl]-2-(3,4,5-trifluorophenyl)-2H-1,2,3-triazole-4-carboxamide]: the IC50 at ADAMTS4 is 3300 nM; in experiment [1], 20 nM.
`Cc1ccc(-n2ncc(C(=O)NC[C@@]3(C4CC4)NC(=O)NC3=O)n2)cc1` [Example 13, N-{[(4R)-4-cyclopropyl-2,5-dioxoimidazolidin-4-yl]methyl}-2-(4-methylphenyl)-2H-1,2,3-triazole-4-carboxamide]: the IC50 against ADAMTS4 amounted to 950 nM; in experiment [1] it was 47 nM.
With `O=C1NC(=O)C(CNC(=O)c2cnn(-c3ccc(F)cc3)n2)(c2ccncc2)N1` (racemic) [Example 24, rac-N-{[2,5-dioxo-4-(pyridin-4-yl)imidazolidin-4-yl]methyl}-2-(4-fluorophenyl)-2H-1,2,3-triazole-4-carboxamide], the IC50 came out at 2900 nM against ADAMTS4 and 140 nM in experiment [1].
In the case of `Cn1ccnc1C1(CNC(=O)c2cnn(-c3ccc(F)c(F)c3)n2)NC(=O)NC1=O` (single isomer, unassigned; ent-2) [Example 147, ent-2-(3,4-difluorophenyl)-N-{[4-(1-methyl-1H-imidazol-2-yl)-2,5-dioxoimidazolidin-4-yl]methyl}2H-1,2,3-triazole-4-carboxamide], the IC50 came out at 46 nM against ADAMTS4 and 3 nM in experiment [1].
Take `Cn1ccnc1C1(CNC(=O)c2cnn(-c3ccccc3)n2)NC(=O)NC1=O` (racemic) [Example 140, rac-N-{[4-(1-methyl-1H-imidazol-2-yl)-2,5-dioxoimidazolidin-4-yl]methyl}-2-phenyl-2H-1,2,3-triazole-4-carboxamide]: the values for the IC50 (on ADAMTS4; in experiment [1]) were 360 nM and 4 nM, respectively.
In the same order, the values of `O=C1NC(=O)C(CNC(=O)c2cnn(-c3ccc(F)cc3)n2)(c2nccs2)N1` (racemic) [Example 113, rac-N-{[2,5-dioxo-4-(1,3-thiazol-2-yl)imidazolidin-4-yl]methyl}-2-(4-fluorophenyl)-2H-1,2,3-triazole-4-carboxamide] are 2400 nM and 39 nM.
In the case of `CC(CO)C1(CNC(=O)c2cnn(-c3ccccc3)n2)NC(=O)NC1=O` (stereo not shown) [Example 57], the IC50 came to 17000 nM at ADAMTS4 and 190 nM in experiment [1].
With `CC(C)C1(CNC(=O)c2cnn(-c3ccc(F)cc3)n2)NC(=O)NC1=O` (racemic) [Example 62, rac-N-[(2,5-dioxo-4-(propan-2-yl)imidazolidin-4-yl)methyl]-2-(4-fluorophenyl)-2H-1,2,3-triazole-4-carboxamide], the results for the IC50 (against ADAMTS4; in experiment [1]) were 16000 nM and 42 nM, respectively.
